Experimental data published in US20170209544A1, “A PEPTIDE THERAPY TO COUNTERACT INSULIN RESISTANCE AND TYPE 2 DIABETES” (The Regents of the University of California, priority 2014, published 2017).
Where no end group is shown, it is not given here.

What was measured:
Bip/GRP78 = Bip/GRP78 (Mus musculus, UniProt P20029); test: Pull down assay using biotinylated PST; type: binding
Source text: PST interacts with ER chaperone, GRP78/BiP. […] Moreover, PST inhibits GRP78's ATPase enzymatic activity, and impairs its biosynthetic response to UPR activation. PST as an inhibitor of ATPase activity augments expression of gluconeogenic gene and G6Pase. GRP78 over-expression antagonizes this PST action.

peritoneal macrophages = test: qPCR of inflammatory genes in cultured peritoneal macrophages; type: cell-based, mice
Protocol: Peritoneal macrophages were isolated after thioglycollate (3% solution in water) stimulation as described. Isolated macrophages were cultured in DMEM with 10% FBS for 48 hours with daily medium changes. Cells were then serum-starved overnight in DMEM with low FBS (0.5%) and then exposed to saline, PST (100 nM), or LPS (100 ng/ml) for 4 hours. At the end of incubation, the cultures were subjected to RNA extraction.
RNA from tissues was extracted using a kit (RNeasy Plus, Qiagen, Valencia, Calif.). After DNase digestion, 200 ng of RNA was transcribed into cDNA in a 20-μl reaction using a High Capacity cDNA Archive kit and this cDNA was amplified. PCR (25-μl reactions) contained 5 μl of cDNA, 2×SYBR Green PCR Master Mix, and 400 nM of each primer. Differences in the threshold cycle number (ΔCt) between the target gene, the housekeeping gene Gapdh and the ribosomal protein gene 36B4 were used to calculate differences in expression. Primer sequences are provided below.
As shown in FIGS. 18A-18H, PST promotes macrophage inflammation and chemotaxis. Peritoneal macrophages were isolated from WT-NCD and KO-NCD after thioglycollate injection. After 4-hr exposure to saline, LPS (100 ng/ml) or PST (100 nM), RNAs were extracted and cDNAs were prepared for qPCR analyses of Chga (FIG. 18A, n=8), iNos (FIG. 18B, n=8), Tnfα (FIG. 18C, n=8), Mcp-1 (FIG. 18D, n=8), IL-6 (FIG. 18E, n=8), IL-12p40 (FIG. 18F, n=8) and iNos genes (FIG. 18G, n=8). (FIG. 18H) Effects of PST on chemotaxis of activated macrophages from NCD-fed C57BL/6J mice (n=5). “*” Denotes comparison between the indicated groups. “*”: P<0.05, “**”: p<0.01, “***”: p<0.001.

WT-NCD mice = test: IP-ITT in WT-NCD mice; type: in vivo; details: chronic PST 5 μg/g BW for 15 days; WT mice on NCD
Protocol: For glucose tolerance tests (GTT), glucose (1 mg/g) was injected intraperitoneally (IP-GTT) (at time zero) or gavaged orally (O-GTT) after a 12-hours fast. Tail-vein glucose levels were measured at −30, 0, 15, 30, 60, 90, and 120 minutes. For insulin tolerance tests (ITT), insulin (0.4 mU/g) was injected intraperitoneally and blood glucose levels were measured at the indicated time points. Chronic PST (5 μg/g/day) and PSTv1 (10 μg/day) treatments were carried out for 15 days. For acute treatment, either peptides or saline were injected 30 minutes before glucose or insulin injection. Synergy Software Kaleidagraph Version 4.0 calculated the area under the curve (AUC) for each line curve.
Treatment with the PST variant PSTv1 improves, whereas PST worsens, glucose tolerance and insulin sensitivity in WT-DIO and WT-NCD mice. WT-DIO mice were treated with saline or PSTv1 (10 μg/g BW/day) for 15 days. Weight-matched DIO mice were fasted for 12 hrs and subjected to IP-GTT (2-way ANOVA: Treatment, p<0.0001; Time, p<0.0001; Interaction, p=0.17, n=6, as shown in FIG. 13A) and IP-ITT (2-way ANOVA: Treatment, p<0.0001; Time, p<0.0001; Interaction, p=0.62 n=9, as shown in FIG. 13C) and AUCs for glucose excursions were determined (as shown in FIGS. 13B and 13D). […]

3T3-L1 adipocytes = test: Insulin-stimulated glucose uptake in adipocytes; type: cell-based; details: 3T3-L1 adipocytes in culture; without any PST variant present
Source text: Mutant PST peptides were synthesized and screened. The peptides were synthesized as various deletion peptides of PST. Native PST (SEQ ID NO. 2) inhibited insulin-stimulated glucose uptake and leptin production in adipocytes. The inventors tested various deletion mutant PST peptides whether one or more of them would compete and prevent native PST action in adipocytes.

Chga-KO mice = test: Body weight of Chga-KO mice on NCD; type: in vivo; details: PST administration for 2 weeks
[1] = PST 100 nM, 4 hr, Chga-KO macrophages

Chain of Bip/GRP78 (P20029 20-655): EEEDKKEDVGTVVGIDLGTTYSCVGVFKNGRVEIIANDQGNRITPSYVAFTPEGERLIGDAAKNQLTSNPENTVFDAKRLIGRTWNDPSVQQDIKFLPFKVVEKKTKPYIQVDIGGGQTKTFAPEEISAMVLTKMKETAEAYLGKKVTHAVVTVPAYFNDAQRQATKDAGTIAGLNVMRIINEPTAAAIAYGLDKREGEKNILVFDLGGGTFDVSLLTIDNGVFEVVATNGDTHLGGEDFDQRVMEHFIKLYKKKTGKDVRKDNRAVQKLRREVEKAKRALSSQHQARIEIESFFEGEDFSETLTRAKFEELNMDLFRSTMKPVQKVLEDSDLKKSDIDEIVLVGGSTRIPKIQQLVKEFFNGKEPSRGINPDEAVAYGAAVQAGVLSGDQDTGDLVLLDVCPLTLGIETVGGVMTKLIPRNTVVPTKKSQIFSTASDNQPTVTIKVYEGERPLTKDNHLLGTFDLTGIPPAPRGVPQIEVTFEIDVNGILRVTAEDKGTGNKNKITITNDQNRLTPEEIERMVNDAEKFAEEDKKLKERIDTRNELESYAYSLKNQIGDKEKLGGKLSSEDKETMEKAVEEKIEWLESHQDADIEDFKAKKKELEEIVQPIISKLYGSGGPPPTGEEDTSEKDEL

PEGKGEQEHSQQKEEEEEMAVVPQGLFRG-amide (PEGKGEQEHSQQKEEEEEMAVVPQGLFRG-NH2) [PST, Wild-type human pancreastatin, a chromogranin A derived peptide]
binding to ER chaperone Bip/GRP78 (Bip/GRP78): binds
expression of IL-6, IL-12p40 and iNos genes (peritoneal macrophages; [1]): had no effect
expression of Tnfα and Mcp-1 (peritoneal macrophages; [1]): increased
expression of Tnfα, Mcp-1, IL-6, IL-12p40 and iNos (peritoneal macrophages; macrophage cultures from WT and Chga-KO mice on NCD): increased
insulin sensitivity (IP-ITT) (WT-NCD mice): induced insulin resistance
inhibition of insulin-stimulated glucose uptake (3T3-L1 adipocytes): 35%
body weight (Chga-KO mice): did not change
